# Like-named read-outs stand apart in the source and are kept apart here.
# System: recombinant NL4-3 virus (Renilla luciferase) in MT-2 cells
# Experiment: HIV cell culture assay (antiviral activity, luciferase readout in infected MT-2 cells)
# Type: cell-based
# Procedure: HIV cell culture assay—MT-2 cells, 293T cells and the proviral DNA clone of NL4-3 virus were obtained from the NIH AIDS Research and Reference Reagent Program. MT-2 cells were propagated in RPMI 1640 media supplemented with 10% heat inactivated fetal bovine serum (FBS), 100 ug/ml penicillin G and up to 100 units/ml streptomycin. The 293T cells were propagated in DMEM media supplemented with 10% heat inactivated FBS, 100 ug/ml penicillin G and 100 ug/ml streptomycin. A recombinant NL4-3 proviral clone, in which a section of the nef gene was replaced with the Renilla luciferase gene, was used to make the reference virus used in these studies. The recombinant virus was prepared through transfection of the recombinant NL4-3 proviral clone into 293T cells using Transit-293 Transfection Reagent from Mirus Bio LLC (Madison, Wis.). Supernatent was harvested after 2-3 days after transfection, and the amount of virus present was titered in MT-2 cells using luciferase enzyme activity as a marker. Luciferase activity was quantitated using the EnduRen Live Cell Substrate from Promega (Madison, Wis.). Antiviral activities of compounds toward the recombinant virus were quantified by measuring luciferase activity in MT-2 cells infected for 4-5 days with the recombinant virus in the presence of serial dilutions of the compound.
# The 50% effective concentration (EC50) was calculated by using the exponential form of the median effect equation where (Fa)=1/[1+(ED50/drug conc.)^m](Johnson V A, Byington R T. Infectivity Assay. In Techniques in HIV Research. ed. Aldovini A, Walker B D. 71-76. New York: Stockton Press. 1990).
# [1] = Renilla, NL43, read-out: Activity, antiviral activity class, recombinant NL4-3 Renilla luciferase virus in MT-2 cells
# [2] = Renilla, NL43, recombinant NL4-3 Renilla luciferase virus in MT-2 cells
Compound,EC50 [1] [nM],other results
"COc1ccc(-c2ccccc2S(=O)(=O)NC(=O)N[C@@H](Cc2ccccc2)C(=O)N(C)c2ccc3c(c2)OCO3)cn1 [Example 126, (S)—N-(benzo[d][1,3]dioxol-5-yl)-2-(3-((2-(6-methoxypyridin-3-yl)phenyl)sulfonyl)ureido)-N-methyl-3-phenylpropanamide]",10000 to 100000,
"(S)-2-(3-([1,1′-biphenyl]-2-ylsulfonyl)ureido)-N-(benzo[d][1,3]dioxol-5-yl)-N-methyl-3-phenylpropanamide [Example 48]",,"EC50 (antiviral activity class, recombinant NL4-3 Renilla luciferase virus in MT-2 cells, read-out: Activity): 1000 to 10000 nM"
"CCCc1cccc(S(=O)(=O)NC(=O)N[C@@H](Cc2ccccc2)C(=O)N(CC)c2ccc(OC)cc2)c1 [Example 142, (S)—N-ethyl-N-(4-methoxyphenyl)-3-phenyl-2-(3-((3-propylphenyl)sulfonyl)ureido)propanamide]",< 100,EC50 [2]: 60 nM
"Cc1ccccc1S(=O)(=O)NC(=O)N[C@@H](Cc1ccccc1)C(=O)N(C)c1ccc(F)c(C(N)=O)c1 [Example CA-100, (S)-2-fluoro-5-(N-methyl-3-phenyl-2-(3-(o-tolylsulfonyl)ureido)propanamido)benzamide]",1000 to 10000,
"CCN(C(=O)[C@H](Cc1ccccc1)NC(=O)NS(=O)(=O)c1cccc(-c2ccsc2Cl)c1C)c1ccc(OC)cc1 [Example 156, (S)-2-(3-((3-(2-chlorothiophen-3-yl)-2-methylphenyl)sulfonyl)ureido)-N-ethyl-N-(4-methoxyphenyl)-3-phenylpropanamide]",100 to 1000,
"COc1ccc(N(C)C(=O)[C@H](Cc2ccccn2)NC(=O)NS(=O)(=O)c2ccccc2C)cc1 [Example 192, (S)—N-(4-methoxyphenyl)-N-methyl-3-(pyridin-2-yl)-2-(3-(o-tolylsulfonyl)ureido)propanamide]",10000 to 100000,
"COc1ccc(N(CC(F)(F)F)C(=O)[C@H](Cc2ccccc2)NC(=O)NS(=O)(=O)c2ccccc2C)cc1 [Example 200, (S)—N-(4-methoxyphenyl)-3-phenyl-2-(3-(o-tolylsulfonyl)ureido)-N-(2,2,2-trifluoroethyl)propanamide]",100 to 1000,
"Cc1ccccc1S(=O)(=O)NC(=O)N[C@@H](Cc1ccccc1)C(=O)N(C)c1ccc(OCC(N)=O)cc1 [Example 217, (S)—N-(4-(2-amino-2-oxoethoxy)phenyl)-N-methyl-3-phenyl-2-(3-(o-tolylsulfonyl)ureido)propanamide]",100 to 1000,
"CN(C(=O)[C@H](Cc1ccccc1)NC(=O)NS(=O)(=O)c1ccccc1-c1cnn(C)c1)c1ccc2c(c1)OCO2 [Example 133, (S)—N-(benzo[d][1,3]dioxol-5-yl)-N-methyl-2-(3-((2-(1-methyl-1H-pyrazol-4-yl)phenyl)sulfonyl)ureido)-3-phenylpropanamide]",,"EC50 (read-out: Activity, antiviral activity class, recombinant NL4-3 Renilla luciferase virus in MT-2 cells): 100 to 1000 nM"
"CCc1cccc(C[C@H](NC(=O)NS(=O)(=O)c2ccccc2CC)C(=O)N(C)c2ccc(OC)cc2)c1 [Example 215, (S)-3-(3-ethylphenyl)-2-(3-((2-ethylphenyl)sulfonyl)ureido)-N-(4-methoxyphenyl)-N-methylpropanamide]",100 to 1000,
"CN(C(=O)[C@H](Cc1ccccc1)NC(=O)NS(=O)(=O)Cc1ccc(Cl)cc1)c1ccc2c(c1)OCO2 [Example 109, (S)—N-(benzo[d][1,3]dioxol-5-yl)-2-(3-((4-chlorobenzyl)sulfonyl)ureido)-N-methyl-3-phenylpropanamide]",100 to 1000,
"CCN(C(=O)[C@H](Cc1ccccc1)NC(=O)NS(=O)(=O)c1ccccc1C(=O)OC)c1ccc(OC)cc1 [Example 114, (S)-methyl 2-(N-((1-(ethyl(4-methoxyphenyl)amino)-1-oxo-3-phenylpropan-2-yl)carbamoyl)sulfamoyl)benzoate]",1000 to 10000,EC50 [2]: 1060 nM
"CN(C(=O)[C@H](Cc1ccccc1)NC(=O)NS(=O)(=O)c1ccc(F)c(F)c1)c1ccc2c(c1)OCO2 [Example 26, (S)—N-(benzo[d][1,3]dioxol-5-yl)-2-(3-((3,4-difluorophenyl)sulfonyl)ureido)-N-methyl-3-phenylpropanamide]",100 to 1000,
"CCN(C(=O)[C@H](Cc1ccccc1)NC(=O)NS(=O)(=O)c1ccc2c(ccn2CC)c1)c1ccc(OC)cc1 [Example 203, (S)—N-ethyl-2-(3-((1-ethyl-1H-indol-5-yl)sulfonyl)ureido)-N-(4-methoxyphenyl)-3-phenylpropanamide]",100 to 1000,
"Cc1ccccc1S(=O)(=O)NC(=O)N[C@@H](Cc1ccc(Cl)cc1Cl)C(=O)N(C)c1ccc2c(c1)OCO2 [Example 74, (S)—N-(benzo[d][1,3]dioxol-5-yl)-3-(2,4-dichlorophenyl)-N-methyl-2-(3-(o-tolylsulfonyl)ureido)propanamide]",1000 to 10000,EC50 [2]: 3880 nM
"COc1ccc(N(C)C(=O)[C@H](CC2CCCC2)NC(=O)NS(=O)(=O)c2ccccc2C)cc1 [Example 196, (S)-3-cyclopentyl-N-(4-methoxyphenyl)-N-methyl-2-(3-(o-tolylsulfonyl)ureido)propanamide]",10000 to 100000,
CN(C(=O)[C@H](Cc1ccccc1)NC(=O)NS(=O)(=O)c1ccccc1)c1ccc(F)cc1 [Example 91],100 to 1000,
"CN(C(=O)[C@H](Cc1ccccc1)NC(=O)NS(=O)(=O)c1cc(F)ccc1F)c1ccc2c(c1)OCO2 [Example 99, (S)—N-(benzo[d][1,3]dioxol-5-yl)-2-(3-((2,5-difluorophenyl)sulfonyl)ureido)-N-methyl-3-phenylpropanamide]",100 to 1000,EC50 [2]: 150 nM
"COc1ccc(N(C)C(=O)[C@H](Cc2ccccc2)NC(=O)NS(=O)(=O)c2ccccc2C)c(C)c1 [Example JB-83, (S)—N-(4-methoxy-2-methylphenyl)-N-methyl-3-phenyl-2-(3-(o-tolylsulfonyl)ureido)propanamide]",100 to 1000,
"Cc1ccccc1S(=O)(=O)NC(=O)N[C@@H](Cc1ccccc1)C(=O)N(C)c1ccc2c(c1)CCC2 [Example 207, (S)—N-(2,3-dihydro-1H-inden-5-yl)-N-methyl-3-phenyl-2-(3-(o-tolylsulfonyl)ureido)propanamide]",< 100,
"CN(C(=O)[C@H](Cc1ccccc1)NC(=O)NS(=O)(=O)Cc1ccccc1)c1ccc2c(c1)OCO2 [Example 10, (S)—N-(benzo[d][1,3]dioxol-5-yl)-2-(3-(benzylsulfonyl)ureido)-N-methyl-3-phenylpropanamide]",100 to 1000,
"C=CCCOc1cccc(C[C@H](NC(=O)NS(=O)(=O)c2ccccc2C=C)C(=O)N(C)c2ccc(OC)cc2)c1 [Example 213, (S)-3-(3-(but-3-en-1-yloxy)phenyl)-N-(4-methoxyphenyl)-N-methyl-2-(3-((2-vinylphenyl)sulfonyl)ureido)propanamide]",1000 to 10000,EC50 [2]: 5070 nM
"Cc1ccccc1S(=O)(=O)NC(=O)N[C@@H](Cc1ccccc1)C(=O)N(C)c1ccc(F)cc1 [Example 169, (S)—N-(4-fluorophenyl)-N-methyl-3-phenyl-2-(3-(o-tolylsulfonyl)ureido)propanamide]",100 to 1000,
"CN(C(=O)[C@H](Cc1ccccc1)NC(=O)NS(C)(=O)=O)c1ccc2c(c1)OCO2 [Example 44, (S)—N-(benzo[d][1,3]dioxol-5-yl)-N-methyl-2-(3-(methylsulfonyl)ureido)-3-phenylpropanamide]",1000 to 10000,EC50 [2]: 2480 nM
"CC(C)C1CC1S(=O)(=O)NC(=O)N[C@@H](Cc1ccccc1)C(=O)N(C)c1ccc2c(c1)OCO2 (stereo partly drawn) [Example 106, (2S)—N-(benzo[d][1,3]dioxol-5-yl)-2-(3-((2-isopropylcyclopropyl)sulfonyl)ureido)-N-methyl-3-phenylpropanamide]",100 to 1000,
"CCN(C(=O)[C@H](Cc1ccccc1)NC(=O)NS(=O)(=O)c1cccc(-c2ccoc2)c1C)c1ccc(OC)cc1 [Example 122, (S)—N-ethyl-2-(3-((3-(furan-3-yl)-2-methylphenyl)sulfonyl)ureido)-N-(4-methoxyphenyl)-3-phenylpropanamide]",100 to 1000,
"CCN(C(=O)[C@H](Cc1ccccc1)NC(=O)NS(=O)(=O)c1ccccc1C)c1ccc2c(c1)CCCO2 [Example CA-81, (S)—N-(chroman-6-yl)-N-ethyl-3-phenyl-2-(3-(o-tolylsulfonyl)ureido)propanamide]",< 100,EC50 [2]: 40 nM
"Cc1ccccc1S(=O)(=O)NC(=O)N[C@@H](Cc1cc(F)cc(F)c1)C(=O)N(C)c1ccc(F)cc1F [Example CA-112, (S)—N-(2,4-difluorophenyl)-3-(3,5-difluorophenyl)-N-methyl-2-(3-(o-tolylsulfonyl)ureido)propanamide]",1000 to 10000,EC50 [2]: 1290 nM
"Cc1ccccc1S(=O)(=O)NC(=O)N[C@@H](Cc1cccc(C#N)c1)C(=O)N(C)c1ccc2c(c1)OCO2 [Example 62, (S)—N-(benzo[d][1,3]dioxol-5-yl)-3-(3-cyanophenyl)-N-methyl-2-(3-(o-tolylsulfonyl)ureido)propanamide]",1000 to 10000,
"Cc1ccccc1S(=O)(=O)NC(=O)N[C@@H](Cc1ccccc1)C(=O)N(C)c1cccc(F)c1 [Example 168, (S)—N-(3-fluorophenyl)-N-methyl-3-phenyl-2-(3-(o-tolylsulfonyl)ureido)propanamide]",100 to 1000,
